The source of these data is US20080275022A1, “Substituted Quinazolones as Anti-Cancer Agents” (AstraZeneca AB, priority 2004, published 2008).

For the experiment, the target named is human recombinant, purified wild type His-B-Raf protein kinase (Homo sapiens, UniProt P15056). Nature of the experiment: B-Raf In Vitro ELISA Assay. The format is biochemical. The conditions noted are these: phosphorylation of MEK1; 2.5 nM B-Raf, 0.15 μM MEK1, 10 μM ATP; 1 hour preincubation at 25° C. As to the method:
B-Raf In Vitro ELISA Assay
Activity of human recombinant, purified wild type His-B-Raf protein kinase was determined in vitro using an enzyme-linked immunosorbent assay (ELISA) assay format, which measures phosphorylation of the B-Raf substrate, human recombinant, purified His-derived (detagged) MEK1. The reaction utilized 2.5 nM B-Raf, 0.15 μM MEK1 and 10 μM adenosine triphosphate (ATP) in 40 mM N-(2-hydroxyethyl)piperazine-N′-(2-ethanesulfonic acid hemisodium salt (HEPES), 5 mM 1,4-dithio-DL-threitol (DTT), 10 mM MgCl2, 1 mM ethylenediaminetetraacetic acid (EDTA) and 0.2 M NaCl (1×HEPES buffer), with or without compound at various concentrations, in a total reaction volume of 25 μl in 384 well plates. B-Raf and compound were preincubated in 1×HEPES buffer for 1 hour at 25° C. Reactions were initiated with addition of MEK1 and ATP in 1×HEPES buffer and incubated at 25° C. for 50 minutes and reactions stopped by addition of 10 μl 175 mM EDTA (final concentration 50 mM) in 1×HEPES buffer. 5 μl of the assay mix was then diluted 1:20 into 50 mM EDTA in 1×HEPES buffer, transferred to 384 well black high protein binding plates and incubated overnight at 4° C. Plates were washed in tris buffered saline containing 0.1% Tween20 (TBST), blocked with 50 μl Superblock (Pierce) for 1 hour at 25° C., washed in TBST, incubated with 50 μl rabbit polyclonal anti-phospho-MEK antibody (Cell Signaling) diluted 1:1000 in TBS for 2 hours at 25° C., washed with TBST, incubated with 50 μl goat anti-rabbit horseradish peroxidase-linked antibody (Cell Signaling) diluted 1:2000 in TBS for 1 hour at 25° C. and washed with TBST. 50 μl of fluorogenic peroxidase substrate (Quantablu—Pierce) was added and following incubation for 45-60 minutes, 50 ul QuantabluSTOP (Pierce) was added. Blue fluorescent product was detected at excitation 325 and emission 420 using a TECAN Ultra plate reader. Data was graphed and IC50s calculated using Excel Fit (Microsoft).
A general note: In an ELISA, binding on a coated surface is turned into a signal by an enzyme label.

Sequence of human recombinant, purified wild type His-B-Raf protein kinase (P15056 whole entry): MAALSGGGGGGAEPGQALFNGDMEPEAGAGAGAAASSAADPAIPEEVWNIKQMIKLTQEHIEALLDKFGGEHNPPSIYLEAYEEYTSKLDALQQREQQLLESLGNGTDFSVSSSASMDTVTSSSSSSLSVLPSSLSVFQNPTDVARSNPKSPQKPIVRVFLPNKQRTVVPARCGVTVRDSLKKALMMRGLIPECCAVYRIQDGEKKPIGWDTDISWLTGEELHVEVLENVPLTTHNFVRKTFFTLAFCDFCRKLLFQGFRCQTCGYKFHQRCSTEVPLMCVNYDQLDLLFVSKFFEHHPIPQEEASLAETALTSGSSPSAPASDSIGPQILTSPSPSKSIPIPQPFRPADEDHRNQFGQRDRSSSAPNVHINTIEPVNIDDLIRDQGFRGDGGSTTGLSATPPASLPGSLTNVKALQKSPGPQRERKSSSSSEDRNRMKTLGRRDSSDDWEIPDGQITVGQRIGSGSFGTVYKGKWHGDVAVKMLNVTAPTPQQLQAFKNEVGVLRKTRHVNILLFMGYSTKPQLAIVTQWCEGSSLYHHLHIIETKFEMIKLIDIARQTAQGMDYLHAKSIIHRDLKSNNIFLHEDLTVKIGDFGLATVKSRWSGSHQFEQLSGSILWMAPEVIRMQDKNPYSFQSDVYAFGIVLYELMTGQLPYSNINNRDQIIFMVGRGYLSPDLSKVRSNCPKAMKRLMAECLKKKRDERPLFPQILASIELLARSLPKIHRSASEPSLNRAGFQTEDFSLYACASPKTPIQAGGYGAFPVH

Consider `Cc1ccc(NC(=O)c2cccc(C(F)(F)F)c2)cc1-n1cnc2ccc(NCCCN(C)C)cc2c1=O` [Example 9, N-{3-[6-(3-Dimethylaminopropylamino)-4-oxo-4H-quinazolin-3-yl]-4-methylphenyl}-3-trifluoromethylbenzamide], for which the 50% inhibitory concentration (IC50) (in general, the concentration at which inhibition is half-maximal) worked out at 535 nM. Take `Cc1ccc(NC(=O)c2cccc(C(F)(F)F)c2)cc1-n1c(C)nc2ccc(N3CCOCC3)cc2c1=O` [Example 14, N-[4-Methyl-3-(2-methyl-6-morpholin-4-yl-4-oxo-4H-quinazolin-3-yl)phenyl]-3-trifluoromethylbenzamide]: the IC50 worked out at 3200 nM.

Take `Cc1ccc(NC(=O)c2cccc(C(F)(F)F)c2)cc1-n1cnc2ccc(OCCN3CCOCC3)cc2c1=O` [Example 22, N-{4-Methyl-3-[6-(2-morpholinoethoxy)-4-oxo-4H-quinazolin-3-yl]phenyl}-3-trifluoromethylbenzamide]: the IC50 is 518 nM.
